Experimental data reported in patent US20220143003A1, “COMPOSITIONS AND METHODS TO TREAT NON-ALCOHOLIC FATTY LIVER DISEASES (NAFLD)” (Coherus Biosciences, Inc., priority 2018, published 2022).

Key:
Format in all cases: in vivo, male C57BL/6JRj mice
[1] = system: DIO-NASH mice; assay: Liver hydroxyproline (HP) at termination, colorimetric assay; details: for Relative liver hydroxyproline (HP) at termination / Total liver hydroxyproline (HP) at termination: group mean
Experimental: (§1) The liver post-biopsy for histological analyses was removed by dissection from the left lateral lobe, fixated in 4% formalin for 20-24 h, and subsequently embedded in paraffin. Liver biopsies for liver triglycerides and total cholesterol were dissected from the medial lobe, snap frozen in liquid nitrogen, and stored at −80° C., while liver biopsies for hydroxyproline were dissected from the caudal lobe (the entire lobe), snap frozen in liquid nitrogen and stored at −80° C. Finally, a liver sample for RNA isolation and gene expression analysis was dissected from the left lateral lobe, snap frozen in liquid nitrogen, and stored at −80° C. until processing.
For liver hydroxyproline (HP; a protein marker of fibrosis) quantification, liver samples were homogenized in 6 M HCl and hydrolyzed to degrade collagen. The samples were centrifuged, and the hydroxyproline content measured in duplicates in the supernatant, using a colorimetric assay (Quickzyme Biosciences) according to the manufacturer's instructions.
Relative liver hydroxyproline (HP) (μg/mg of liver) at termination. Values expressed as mean of n=12-14+SEM.
Total liver hydroxyproline (HP) (μg/liver) at termination. Values expressed as mean of n=12-14+SEM.

[2] = system: DIO-NASH mice; assay: Liver triglycerides (TG) at termination; details: group mean
Experimental: as §1
For liver TG and TC quantification, samples were homogenized, and TG and TC extracted in 5% NP-40 by heating twice to 90° C. The samples were centrifuged, and the TG and TC content measured in the supernatant, using commercial kits (Roche Diagnostics) on the Cobas c501 autoanalyzer according to the manufacturer's instructions.
Relative (mg/g of liver) liver triglycerides (TG) at termination. Values expressed as mean of n=12-14+SEM.
Total (mg/liver) liver triglycerides (TG) at termination. Values expressed as mean of n=12-14+SEM.

[3] = system: DIO-NASH mice; assay: Plasma alanine transaminase (ALT) at termination; details: for Plasma alanine transaminase (ALT) at termination: group mean
Experimental: For plasma biochemistry, tail blood was drawn directly through the capillary of a Microvette/Vacuette of the right dimension and anticoagulant and mixed by inversion 5 times. Blood was placed at 4° C. until centrifugation at 3000×g for 10 minutes at 4° C. The plasma supernatants were transferred to new tubes and immediately frozen on dry ice and stored at −80° C. until analysis.
Mouse insulin was measured in single determinations using the MSD platform (Meso Scale Diagnostics).
Plasma alanine transaminase (ALT) at termination (U/L). Values expressed as mean of n=11-14+SEM.

[4] = system: DIO-NASH mice; assay: Liver α-SMA IHC quantified by morphometry; details: for Relative terminal liver α-SMA by morphometry / Total terminal α-SMA (% fractional area multiplied with liver weight): group mean
Experimental: Protein markers of fibrosis (Col1a1), fibrogenesis (α-SMA) and inflammation (Gal-3) were assessed by immunohistochemistry. α-SMA and collagen type I increase in regulation of quiescent hepatic stellate cell activation into myofibroblast-like cells where activated hepatic stellate cells are the main collagen producing cells in the liver (Carpino et al 2005, Hou and Syn 2018) whereas Gal-3 is involved in mediating inflammatory response and considered as a macrophage activation marker (Sciacchitano et al, 2018). For morphometric quantification of liver Col1a1 (using antibody from Southern Biotech, Cat. #1310-01), alpha-smooth muscle actin (α-SMA; using antibody from Abcam, Cat. #Ab124964) and Galectin-3 (using antibody from Biolegend, Cat. #125402), IHC staining was performed using standard procedures. Briefly, after antigen retrieval and blocking of endogenous peroxidase activity, slides were incubated with primary antibody. For all IHC stains, the primary antibody was detected using a polymeric HRP-linker antibody conjugate and visualized using DAB as chromogen. Finally, sections were counterstained in hematoxylin and cover-slipped before scanning.
Quantitative assessment of immunoreactivity is evaluated as follows. IHC-positive staining is quantified by image analysis using the Visiomorph software (Visiopharm, Denmark). Visiomorph protocols are designed to analyze the virtual slides in two steps: 1. Crude detection of tissue at low magnification (1× objective). The liver capsule is excluded. 2. Detection of IHC-positive staining (e.g. green; collagen 1 IHC), tissue (e.g. red) and fat (e.g. pink) at high magnification (10×objective). The quantitative estimate of IHC-positive staining is calculated as an area fraction (AF) according to the following formula:
Terminal liver α-SMA was quantified by morphometry. Relative terminal liver α-SMA (% fractional area) is expressed as mean of n=12-14+SEM.
Total terminal α-SMA values are in milligrams (% fractional area multiplied with liver weight) and expressed as mean of n=12-14+SEM.

[5] = system: DIO-NASH mice; assay: Absolute and relative body weight, measured daily and at termination; details: for Absolute body weight at termination / Terminal relative body weight, percentage of starting body weight: group mean; for Terminal relative body weight, percentage of starting body weight: day 83/84/85, baseline day 0=100%
Experimental: The Diet-induced-obesity (DIO)-NASH mouse model was induced by feeding male C57BL/6JRj mice a high fat diet containing 40% fat with trans-fat, 20% fructose and 2% cholesterol (AMLN diet or D09100301, Research Diets Inc., USA). Induction of NASH was started at 5 weeks of age and mice were fed the AMLN diet for 36 weeks prior to study start resulting in NASH, which was confirmed by pre-biopsy prior to study start as described below.
Absolute body weight, BW, (g) was measured daily throughout the study period. Values expressed as mean of n=11-14+SEM (see FIG. 1).
Absolute body weight at termination (measured day 83/84/85). Values expressed as mean of n=12-14+SEM.
Relative BW, recorded as percentage of starting body weight (baseline day 0=100%), was measured daily throughout the study period. Values expressed as mean of n=11-14+SEM (see FIG. 2).
Terminal relative body weight (measured day 83/84/85), recorded as percentage of starting body weight (baseline day 0=100%). Values expressed as mean of n=12-14+SEM.

[6] = DIO-NASH mice, 12 weeks of treatment, summary of data
[7] = CHS-131 High dose (alone or combined)
[8] = day 83/84/85, CHS-131 High 30 mg/kg, empagliflozin 10 mg/kg, elafibranor 30 mg/kg PO, liraglutide 0.4 mg/kg SC, QD
[9] = CHS-131 High 30 mg/kg, empagliflozin 10 mg/kg, elafibranor 30 mg/kg PO, liraglutide 0.4 mg/kg SC, QD

O=S(=O)(Nc1cc(Cl)c(Oc2cnc3ccccc3c2)c(Cl)c1)c1ccc(Cl)cc1Cl [CHS-131] was tested, and the “Marker of fibrosis hydroxyproline, effect in words” value [1, 6] was “positive trends for improvement”, the “Improvement of liver hydroxyproline level at termination (marker of fibrosis)” value ([1]; DIO-NASH mice, compared to DIO mice administered vehicle only, significant) was 30% and the “Relative liver hydroxyproline (HP) at termination” value (shortened to “Relative liver hydroxyproline (HP)”) [1, 7] was 0.0802 μg/mg of liver. The “Total liver hydroxyproline (HP) at termination” value (from here on “Total liver hydroxyproline (HP)”) [1, 7] was 250 μg/liver, the “Relative liver hydroxyproline (HP)” value ([1]; CHS-131 Low dose) was 0.0631 μg/mg of liver and the “Total liver hydroxyproline (HP)” value ([1]; CHS-131 Low dose) was 205 μg/liver. The “Relative liver triglycerides (TG) at termination” value (from here on “Relative liver triglycerides (TG)”) [2, 7] was 92.9 mg/g of liver, the “Total liver triglycerides (TG) at termination” value (“Total liver triglycerides (TG)” below) [2, 7] was 300 mg/liver and the “Relative liver triglycerides (TG)” value ([2]; CHS-131 Low dose) was 96.7 mg/g of liver. For the same molecule, the “Total liver triglycerides (TG)” value ([2]; CHS-131 Low dose) was 306 mg/liver, the “Plasma ALT, effect in words” value [3, 6] was “reduced” and the “Decrease of plasma alanine aminotransferase (ALT)” value ([3]; DIO-NASH mice, compared to DIO mice administered vehicle only (placebo)) was 30%. The “Plasma alanine transaminase (ALT) at termination” value (“Plasma alanine transaminase (ALT)” below) [3, 7] was 140 U/L, the “Plasma alanine transaminase (ALT)” value ([3]; CHS-131 Low dose) was 163 U/L and the “Marker of fibrosis α-SMA, effect in words” value [4, 6] was “positive trends for improvement”. For the same molecule, the “Decrease of terminal α-SMA (marker of fibrosis)” value ([4]; DIO-NASH mice, compared to vehicle alone, trend) was 15%, the “Relative terminal liver α-SMA by morphometry” value (shortened to “Relative terminal liver α-SMA”) [4, 7] was 3.07 % fractional area and the “Total terminal α-SMA (% fractional area multiplied with liver weight)” value [4, 7] was 102 milligrams. For the same molecule, the “Relative terminal liver α-SMA” value ([4]; CHS-131 Low dose) was 3.49 % fractional area, the “Total terminal α-SMA (% fractional area multiplied with liver weight)” value ([4]; CHS-131 Low dose) was 110 milligrams and the “Body weight, effect in words” value ([5]; compared to DIO mice administered vehicle only) was “tends to reduce”. The “Absolute body weight at termination” value [5, 8] was 38.2 grams, the “Absolute body weight at termination” value ([5]; day 83/84/85, CHS-131 Low 10 mg/kg PO QD) was 38.2 grams and the “Terminal relative body weight, percentage of starting body weight” value [5, 9] was 102%. The “Terminal relative body weight, percentage of starting body weight” value ([5]; CHS-131 Low 10 mg/kg PO QD) was 103%.

OC[C@H]1O[C@@H](c2ccc(Cl)c(Cc3ccc(O[C@H]4CCOC4)cc3)c2)[C@H](O)[C@@H](O)[C@@H]1O [Empagliflozin, reference compound] was tested, and the “Relative liver hydroxyproline (HP)” value [1, 7] was 0.0747 μg/mg of liver, the “Total liver hydroxyproline (HP)” value [1, 7] was 233 μg/liver and the “Relative liver triglycerides (TG)” value [2, 7] was 108 mg/g of liver. The “Total liver triglycerides (TG)” value [2, 7] was 368 mg/liver, the “Plasma alanine transaminase (ALT)” value [3, 7] was 216 U/L and the “Markers of fibrosis, effect in words” value ([4]; DIO-NASH mice, 12 weeks of treatment, summary of data, markers not given) was “significant reduction”. For the same molecule, the “Relative terminal liver α-SMA” value [4, 7] was 3.8 % fractional area, the “Total terminal α-SMA (% fractional area multiplied with liver weight)” value [4, 7] was 130 milligrams and the “Absolute body weight at termination” value [5, 8] was 39.6 grams. The “Terminal relative body weight, percentage of starting body weight” value [5, 9] was 107%.

In the case of CSc1ccc(C(=O)/C=C/c2cc(C)c(OC(C)(C)C(=O)O)c(C)c2)cc1 [Elafibranor, reference compound], the “Relative liver hydroxyproline (HP)” value [1, 7] is reported as 0.0389 μg/mg of liver, the “Total liver hydroxyproline (HP)” value [1, 7] is reported as 164 μg/liver and the “Relative liver triglycerides (TG)” value [2, 7] is reported as 45.2 mg/g of liver. For the same molecule, the “Total liver triglycerides (TG)” value [2, 7] was 196 mg/liver, the “Plasma alanine transaminase (ALT)” value [3, 7] was 144 U/L and the “Relative terminal liver α-SMA” value [4, 7] was 2.56 % fractional area. The “Total terminal α-SMA (% fractional area multiplied with liver weight)” value [4, 7] was 114 milligrams, the “Absolute body weight at termination” value [5, 8] was 31.8 grams and the “Terminal relative body weight, percentage of starting body weight” value [5, 9] was 86.5%.
